What was measured:
[1] = target: mGluR5; assay: MGluR5 receptor binding test ([3H]-M-MPEP displacement); design: species or system rat or human; conditions: radioligand [3H]-M-MPEP 2 nM; table does not say rat cortical membranes or hmGluR5a cells; read-out: mGlu5 Ki
Experimental: MGluR5 receptor binding was determined according to Gasparini et.al. (Bioorg. Med. Chem. Lett. 2000, 12:407-409) with modifications. Rat cerebro-cortical membrane preparation was used to determine the binding characteristics of reference compounds and novel compounds to the rat mGluR5. The A18 cell line expressing hmGluR5a (purchased from Euroscreen) was used to determine binding characteristics of the chemical compounds to the human mGluR5a receptor. As radioligand [3H]-M-MPEP (2 nM) was used. The nonspecific binding was determined in the presence of 10 μM M-MPEP.

[2] = target: T1, mGluR1 (Rattus norvegicus, UniProt P23385); assay: MGluR1 receptor binding test ([3H]R214127 displacement, rat cerebellar membrane); conditions: rat cerebellar membranes; radioligand [3H]R214127 3 nM; read-out: mGlu1 Ki
T1 construct: rat cerebellar membrane preaparation was used; from tissue; host or cells: rat cerebellum (membrane preparation)
Experimental: MGluR1 receptor binding tests were performed according to modified method of Lavreysen et al. (Mol.Pharm., 2003, 63, 1082). Based on the high homology between the human and rat mGluR1 receptors, rat cerebellar membrane preaparation was used to determine the binding characteristics of reference compounds and novel compounds to the rat mGluR1. As radioligand [3H]R214127 (3 nM) was used and the nonspecific binding was determined in the presence of 1 μM of R214127.
IC-50 values were determined from displacement curves by nonlinear regression analysis and were converted by equation method of Cheng and Prusoff (Biochem. Pharmacol., 1973, 22, 3099) to Ki values.

T1 sequence (P23385 19-1199): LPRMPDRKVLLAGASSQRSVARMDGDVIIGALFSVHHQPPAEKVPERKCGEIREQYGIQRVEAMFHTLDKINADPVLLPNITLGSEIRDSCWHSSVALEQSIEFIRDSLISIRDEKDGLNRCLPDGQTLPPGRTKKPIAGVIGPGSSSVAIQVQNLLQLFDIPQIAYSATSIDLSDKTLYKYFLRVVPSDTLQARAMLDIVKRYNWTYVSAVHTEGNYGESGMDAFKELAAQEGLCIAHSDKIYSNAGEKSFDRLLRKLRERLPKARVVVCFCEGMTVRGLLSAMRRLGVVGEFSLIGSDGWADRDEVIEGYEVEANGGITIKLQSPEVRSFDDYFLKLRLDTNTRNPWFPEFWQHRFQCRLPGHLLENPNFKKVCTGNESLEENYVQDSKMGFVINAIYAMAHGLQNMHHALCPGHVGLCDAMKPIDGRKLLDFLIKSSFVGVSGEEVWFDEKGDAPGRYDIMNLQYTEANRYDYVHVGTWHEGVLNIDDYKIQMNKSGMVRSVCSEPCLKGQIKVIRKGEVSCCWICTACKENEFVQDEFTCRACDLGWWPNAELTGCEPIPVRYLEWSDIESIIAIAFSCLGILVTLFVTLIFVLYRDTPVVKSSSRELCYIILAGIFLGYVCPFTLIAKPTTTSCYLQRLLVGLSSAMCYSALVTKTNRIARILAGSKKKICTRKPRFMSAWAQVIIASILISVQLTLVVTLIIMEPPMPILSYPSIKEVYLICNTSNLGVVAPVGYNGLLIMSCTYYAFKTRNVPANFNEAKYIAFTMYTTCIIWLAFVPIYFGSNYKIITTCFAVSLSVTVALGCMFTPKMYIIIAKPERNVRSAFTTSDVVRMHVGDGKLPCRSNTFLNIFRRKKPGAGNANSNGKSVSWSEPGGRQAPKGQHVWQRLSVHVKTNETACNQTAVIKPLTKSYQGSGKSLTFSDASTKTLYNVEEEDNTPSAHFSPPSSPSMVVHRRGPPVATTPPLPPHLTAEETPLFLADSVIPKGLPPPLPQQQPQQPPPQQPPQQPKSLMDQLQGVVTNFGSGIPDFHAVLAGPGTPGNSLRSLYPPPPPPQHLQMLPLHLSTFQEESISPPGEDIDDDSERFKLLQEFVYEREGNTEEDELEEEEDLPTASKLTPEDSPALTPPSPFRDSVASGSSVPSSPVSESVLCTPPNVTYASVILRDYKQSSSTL

Row | Structure (SMILES) | Ki [1] [µM] | Ki [2] [µM]
1 | O=S(=O)(c1ccc(Cl)cc1)c1sc2nc(O)ccc2c1-c1ccc(Cl)cc1 [Compound 1, 2-(4-Chloro-Benzenesulfonyl)-3-(4-Chloro-Phenyl)-7H-Thieno[2,3-b]Pyridin-6-One] | < 0.5 | > 0.5
2 | N#Cc1cccc(S(=O)(=O)c2sc3nc(O)ccc3c2-c2ccc(Cl)cc2)c1 [Compound 2, 3-[3-(4-chloro-phenyl)-6-oxo-6,7-dihydro-thieno[2,3-b]pyridin-2-sulfonyl]-benzonitrile] | < 0.5 | < 0.5
3 | Cc1cccc(S(=O)(=O)c2sc3[nH]c(=O)ccc3c2-c2ccc(Cl)cc2)c1 [Compound 4, 3-(4-chloro-phenyl)-2-(toluene-3-sulfonyl)-7H-thieno[2,3-b]pyridin-6-one] | > 0.5 | 
4 | O=C(OCc1ccc(F)cc1)c1sc2[nH]c(=O)ccc2c1-c1ccc(Cl)cc1 [Compound 3, 3-(4-chloro-phenyl)-6-oxo-6,7-dihydro-thieno[2,3-b]pyridine-2-carboxylic acid 4-fluoro-benzyl ester] | < 0.5 | < 0.5
